In ChEMBL document CHEMBL1128636, “()-1-Azabicyclo[2.2.1]heptan-3-one, O-(3-methyl-5-aryl-2-penten-4-ynyl) oximes: Potent muscarinic agonists” (Bioorg Med Chem Lett, 1995):
The source made the active and inactive calls. No cut-off for these calls is given here.

What was measured:
[1] = target: T1, Muscarinic acetylcholine receptor M2 (Homo sapiens) (UniProt P08172); details: NIH3T3
T1 sequence (whole entry): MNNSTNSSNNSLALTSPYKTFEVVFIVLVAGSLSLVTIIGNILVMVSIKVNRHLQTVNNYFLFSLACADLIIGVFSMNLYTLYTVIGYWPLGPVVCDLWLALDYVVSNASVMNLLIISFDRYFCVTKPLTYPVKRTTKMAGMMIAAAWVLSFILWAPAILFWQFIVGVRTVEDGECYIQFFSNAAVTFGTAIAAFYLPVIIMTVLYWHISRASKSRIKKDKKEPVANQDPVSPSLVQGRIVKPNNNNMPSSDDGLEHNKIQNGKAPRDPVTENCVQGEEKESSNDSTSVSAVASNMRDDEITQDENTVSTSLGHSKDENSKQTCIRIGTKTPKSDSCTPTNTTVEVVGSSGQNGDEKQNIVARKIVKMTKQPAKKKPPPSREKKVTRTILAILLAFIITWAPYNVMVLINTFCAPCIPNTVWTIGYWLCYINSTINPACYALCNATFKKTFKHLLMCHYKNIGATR
Description: Agonistic efficacy in human m2 muscarinic receptor expressed with the marker gene beta-galactosidase in NIH 3T3 cells.

[2] = target: T2, Muscarinic acetylcholine receptor M1 (Homo sapiens) (UniProt P11229); details: NIH3T3
T2 sequence (whole entry): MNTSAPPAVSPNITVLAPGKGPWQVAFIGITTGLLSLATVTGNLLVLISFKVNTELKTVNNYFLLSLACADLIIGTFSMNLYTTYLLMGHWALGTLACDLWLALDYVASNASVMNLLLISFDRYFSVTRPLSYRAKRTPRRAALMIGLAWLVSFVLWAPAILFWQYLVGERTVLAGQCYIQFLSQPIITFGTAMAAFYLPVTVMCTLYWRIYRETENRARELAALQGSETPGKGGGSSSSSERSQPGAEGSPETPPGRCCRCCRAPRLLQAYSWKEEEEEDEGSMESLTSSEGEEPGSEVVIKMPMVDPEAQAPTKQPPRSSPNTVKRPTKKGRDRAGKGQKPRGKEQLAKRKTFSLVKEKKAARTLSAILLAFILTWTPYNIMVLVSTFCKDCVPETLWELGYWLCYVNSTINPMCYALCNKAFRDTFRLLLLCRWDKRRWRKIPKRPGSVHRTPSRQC
Description: Agonistic efficacy in human m1 muscarinic receptor expressed with the marker gene beta-galactosidase in NIH 3T3 cells.

[3] = target: Muscarinic acetylcholine receptor
Description: Binding affinity against muscarinic receptor using radioligand [3H]cis-methyldioxolane (CMD) binding assay in membrane preparations of rat neocortex.

[4] = target: Muscarinic acetylcholine receptor; remark: listed apart in the source
Description: Binding affinity against muscarinic receptor using radioligand [3H]quinuclidinyl benzilate (QNB) binding assay in membrane preparations of rat neocortex.

[5] = target: T3, Muscarinic acetylcholine receptor (Rattus norvegicus) (UniProt P08482+P08483+P08485+P08911+P10980); assay type: tissue-based; details: Neocortex; 1 uM
[6] = target: T3, Muscarinic acetylcholine receptor (Rattus norvegicus); assay type: tissue-based; details: Neocortex; 100 nM
[7] = target: Muscarinic acetylcholine receptor; assay type: tissue-based, Neocortex
[8] = target: T2, Muscarinic acetylcholine receptor M1 (Homo sapiens); assay: Agonistic efficacy in human m1 muscarinic receptor which was expressed with the marker gene beta-galactosidase in NIH 3T3 cells; No data; assay type: functional, cell-based; details: NIH3T3

Row | SMILES | ED50 [1] [nM] | ED50 [2] [nM] | IC50 [3] [nM] | IC50 [4] [nM] | further results
1 | C[N+](C)(C)CCOC(N)=O | 22.8 |  |  |  | 
2 | C/C(C#Cc1ccccc1)=C/CO/N=C1/CN2CCC1C2 (configuration not stated) | 4.2 | 120 | 1.07 | 181 | 
3 | COc1ccc(C#C/C(C)=C/CO/N=C2/CN3CCC2C3)cc1 (configuration not stated) |  |  |  |  | inhibition [5]: 19%; inhibition [6]: 33%
4 | COc1ccc(C#C/C(C)=C\CO/N=C2/CN3CCC2C3)cc1 (configuration not stated) | 10.7 | 8.6 | 17 | 1992 | 
5 | COc1ccc(C#C/C(C)=C\CO/N=C2\CN3CCC2C3)cc1OC (configuration not stated) |  | 55 | 1.38 | 1245 | 
6 | COc1ccc(C#C/C(C)=C\CO/N=C2/CN3CCC2C3)cc1OC (configuration not stated) | 0.9 | 162 | 4.6 | 8547 | 
7 | C/C(C#Cc1ccc(F)cc1)=C\CO/N=C1\CN2CCC1C2 (configuration not stated) |  | 31.5 |  |  | 
8 | C/C(C#Cc1cccs1)=C/CO/N=C1\CN2CCC1C2 (configuration not stated) | 2.3 | 6.2 | 0.02 | 21 | 
9 | C/C(C#Cc1ccc(Cl)cc1)=C\CO/N=C1/CN2CCC1C2 (configuration not stated) |  |  |  |  | inhibition [5]: 52%; inhibition [6]: 57%
10 | C/C(C#Cc1ccc(Cl)cc1)=C/CO/N=C1/CN2CCC1C2 (configuration not stated) | 2.8 | 29.1 | 0.45 | 81 | 
11 | C/C(C#Cc1ccc(Cl)c(Cl)c1)=C\CO/N=C1/CN2CCC1C2 (configuration not stated) |  |  |  |  | inhibition [5]: 39%; inhibition [6]: 49%
12 | C/C(C#Cc1ccc(C)cc1)=C/CO/N=C1/CN2CCC1C2 (configuration not stated) | 4.4 | 83.3 | 5.02 | 383 | 
13 | C/C(C#Cc1cccs1)=C/CO/N=C1/CN2CCC1C2 (configuration not stated) | 2.5 | 11.6 | 4.1 | 608 | 
14 | C#C/C(C)=C\CO/N=C1/CN2CCC1C2 (configuration not stated) | 45 | 30 | 12 | 4234 | 
15 | C/C(C#Cc1ccccc1)=C/CO/N=C1\CN2CCC1C2 (configuration not stated) |  |  | 0.15 | 44 | 
16 | COc1ccc(C#C/C(C)=C\CO/N=C2\CN3CCC2C3)cc1 (configuration not stated) | 8.9 | 8.5 | 0.1 |  | IC50 [7]: 60 nM
17 | C/C(C#Cc1ccc(C)cc1)=C\CO/N=C1\CN2CCC1C2 (configuration not stated) |  |  | 22.16 | 681 | 
18 | C/C(C#Cc1ccccc1)=C\CO/N=C1/CN2CCC1C2 (configuration not stated) |  |  |  |  | inhibition [5]: 18%; inhibition [6]: 31%
19 | COc1ccc(C#C/C(C)=C/CO/N=C2\CN3CCC2C3)cc1OC (configuration not stated) | 1.8 | 74 | 5.37 | 2380 | 
20 | COc1cccc(C#C/C(C)=C/CO/N=C2\CN3CCC2C3)c1 (configuration not stated) |  | 93.2 |  |  | 

Row | SMILES | ED50 [1] [nM] | ED50 [2] [nM] | IC50 [3] [nM] | IC50 [4] [nM] | further results
21 | COc1cccc(C#C/C(C)=C\CO/N=C2\CN3CCC2C3)c1 (configuration not stated) |  | 51.1 |  |  | 
22 | C/C(C#Cc1ccc(Cl)c(Cl)c1)=C\CO/N=C1\CN2CCC1C2 (configuration not stated) | 940 | 398 | 0.8 | 171 | 
23 | COc1ccc(C#C/C(C)=C/CO/N=C2\CN3CCC2C3)cc1 (configuration not stated) |  |  | 12 | 1413 | 
24 | C#C/C(C)=C/CO/N=C1\CN2CCC1C2 (configuration not stated) | 11 | 85 | 4 |  | 
25 | C#C/C(C)=C/CO/N=C1/CN2CCC1C2 (configuration not stated) |  |  | 21 | 19308 | 
26 | C#C/C(C)=C\CO/N=C1\CN2CCC1C2 (configuration not stated) | 23.7 | 12 |  |  | 
27 | C/C(C#Cc1ccc(Cl)c(Cl)c1)=C/CO/N=C1\CN2CCC1C2 (configuration not stated) |  |  |  |  | inhibition [5]: 77%; inhibition [6]: 46%
28 | C/C(C#Cc1ccc(Cl)cc1)=C/CO/N=C1\CN2CCC1C2 (configuration not stated) |  |  |  |  | ED50 [8]: inactive
29 | C/C(C#Cc1cccs1)=C\CO/N=C1\CN2CCC1C2 (configuration not stated) | 24 | 0.4 | 4.96 | 968 | 
30 | C/C(C#Cc1ccc(F)cc1)=C/CO/N=C1\CN2CCC1C2 (configuration not stated) |  | 20.9 |  |  | 
31 | C/C(C#Cc1ccc(C)cc1)=C/CO/N=C1\CN2CCC1C2 (configuration not stated) | 10.7 | 10.5 | 0.57 | 64 | 
32 | COc1cccc(C#C/C(C)=C/CO/N=C2/CN3CCC2C3)c1 (configuration not stated) |  | 264 |  |  | 
33 | C/C(C#Cc1ccc(Cl)cc1)=C\CO/N=C1\CN2CCC1C2 (configuration not stated) |  |  | 27.12 | 439 | 
34 | C/C(C#Cc1ccc(F)cc1)=C\CO/N=C1/CN2CCC1C2 (configuration not stated) |  | 156 |  |  | 
35 | C/C(C#Cc1ccc(Cl)c(Cl)c1)=C/CO/N=C1/CN2CCC1C2 (configuration not stated) |  |  |  |  | inhibition [5]: 51%; inhibition [6]: 14%
36 | C/C(C#Cc1ccc(C)cc1)=C\CO/N=C1/CN2CCC1C2 (configuration not stated) |  |  |  |  | inhibition [5]: 31%; inhibition [6]: 29%
37 | C/C(C#Cc1cccs1)=C\CO/N=C1/CN2CCC1C2 (configuration not stated) |  |  | 80.47 | 5593 | 
38 | C/C(C#Cc1ccc(F)cc1)=C/CO/N=C1/CN2CCC1C2 (configuration not stated) |  | 48 |  |  | 
39 | C/C(C#Cc1ccccc1)=C\CO/N=C1\CN2CCC1C2 (configuration not stated) |  |  | 12.4 | 1587 | 
